From ChEMBL document CHEMBL1149939, “Potential anxiolytic agents. 2. Improvement of oral efficacy for the pyrido[1,2-a]benzimidazole (PBI) class of GABA-A receptor modulators” (Bioorg Med Chem Lett, 1996)
“And” between values parts separate entries of the source, which are not always exact repeats. Identical values can stand only once.

How the values were obtained:
[1] = biological target: GABA-A receptor; anion channel; experiment: Binding affinity against the BZD site of the Gamma-aminobutyric acid A receptor in rat cerebral cortex using radioligand ([3H]flunitrazepam) assay in the absence of Gamma-aminobutyric acid; assay type: tissue-based
[2] = biological target: GABA-A receptor; anion channel; experiment: Binding affinity against the BZD site of the Gamma-aminobutyric acid A receptor in rat cerebral cortex using radioligand ([3H]flunitrazepam) assay in the presence of Gamma-aminobutyric acid; assay type: tissue-based
[3] = Tested for skeletal muscle relaxant activity using horizontal screen assay.; assay type: functional
Mus sp. = species: Mus sp.; experiment: Test ability to block the tonic-clonic component of seizures induced by metrazole in mice.; assay type: functional
[4] = Tested for its interaction with ethanol by its ability to potentiate the effect of ethanol on sleep.; assay type: functional; conditions: read-out: MED
Rattus norvegicus [5] = species: Rattus norvegicus; experiment: Compound was tested for its ability to release (i.e., disinhibit) behavior that had been suppressed by punishment in rats (vogel conflict test).; assay type: functional; conditions: read-out: MED
Rattus norvegicus [6] = species: Rattus norvegicus; experiment: The compound was tested for its ability to release (i.e., disinhibit) behavior that had been suppressed by punishment in rats (vogel conflict test).; assay type: functional; conditions: read-out: MED
[7] = biological target: T1, GABA-A receptor; anion channel (Rattus norvegicus) (UniProt O09028+P15431+P18506+P18508+P19969+P20236+P23574+P23576+P28471+P28473+P30191+P62813+P63079+P63138+Q91ZM7+Q9ES14); experiment: Ratio of IC50 (no GABA) to IC50 (GABA) was measured as GABA Shift (GS); assay type: protein-complex assay
Rattus norvegicus [8] = species: Rattus norvegicus; experiment: animal or person; conditions: read-out: MED
Rattus norvegicus [9] = species: Rattus norvegicus; experiment: animal or person; conditions: read-out: MED; remark: listed apart in the source
Mus musculus = species: Mus musculus; experiment: Compound was tested for its ability to block the tonic-clonic component of seizures induced by metrazole in mice; Range = 10-30; assay type: functional
[10] = biological target: T1, GABA-A receptor; anion channel (Rattus norvegicus); experiment: Relative binding in the presence and absence of GABA, (IC50-GABA /IC50+GABA); assay type: protein-complex assay

Compound	IC50 [1] [µM]	IC50 [2] [µM]	GABA shift [7]	ED50 (Mus sp.; Mus sp., read-out: ED50) [mg/kg]	other results
O=C(Nc1ccncc1)C1=C(O)CCn2c1nc1ccccc12	0.16	0.078	2.1	–	ED50 ([3]; read-out: ED50): > 30 mg/kg; ED50 (Mus sp.): 3.1 mg/kg and 7.8 mg/kg; minimal effective dose [4]: > 60 mg/kg; minimal effective dose (Rattus norvegicus [5]): 10 mg/kg; minimal effective dose (Rattus norvegicus [6]): 3 mg/kg
CN1C(=O)CN=C(c2ccccc2)c2cc(Cl)ccc21 [DIAZEPAM]	–	–	–	–	ED50 (Mus sp.): 0.11 mg/kg and 0.3 mg/kg; minimal effective dose (Rattus norvegicus [8]): 5 mg/kg; minimal effective dose (Rattus norvegicus [9]): 5 mg/kg
O=C(Nc1ccc(C(=O)O)cc1)C1=C(O)CCn2c1nc1ccccc12	> 10	> 10	–	–	ED50 (Mus sp.): >30 mg/kg and 10 mg/kg
O=C(NCc1ccncc1)C1=C(O)CCn2c1nc1ccccc12	0.065	0.069	0.9	> 10	–
O=C(Nc1ccncc1Cl)C1=C(O)CCn2c1nc1ccccc12	0.22	0.1	2.2	–	–
O=C1CCN2C(=C1C(=O)Nc1ccccc1)Nc1ccccc12	–	–	–	5.2	ED50 [3]: >30 mg/kg and 10 mg/kg; ED50 (Mus musculus): 10 mg/kg; minimal effective dose (Rattus norvegicus [5]): > 10 mg/kg; minimal effective dose (Rattus norvegicus [6]): 10 mg/kg; GABA shift [10]: 1.5
CN(C)c1ccc(NC(=O)C2=C(O)CCn3c2nc2ccccc23)cc1	0.27	0.21	1.2	–	ED50 [3]: >30 mg/kg and 10 mg/kg; minimal effective dose (Rattus norvegicus [5]): 10 mg/kg; minimal effective dose (Rattus norvegicus [6]): 3 mg/kg
O=C(Nc1ccncn1)C1=C(O)CCn2c1nc1ccccc12	0.48	0.37	1.3	> 10	ED50 (Mus sp.): 10 mg/kg
O=C(Nc1cnccn1)C1=C(O)CCn2c1nc1ccccc12	0.36	0.4	0.9	> 10	–
O=C(Nc1ccnc(Cl)c1)C1=C(O)CCn2c1nc1ccccc12	0.068	0.065	1.1	–	ED50 (Mus sp.): 3.7 mg/kg and 10 mg/kg
Cc1cnccc1NC(=O)C1=C(O)CCn2c1nc1ccccc12	7.1	12	0.6	> 10	–
CN(C)c1cccc(NC(=O)C2=C(O)CCn3c2nc2ccccc23)c1	0.037	0.025	1.5	–	–
CN(C)c1ccc(NC(=O)C2=C(O)CCn3c2nc2ccccc23)c(F)c1	0.12	0.087	1.4	–	–
Nc1ccccc1NC(=O)C1=C(O)CCn2c1nc1ccccc12	0.05	0.033	–	–	GABA shift [10]: 1.5
O=C(NCc1cccnc1)C1=C(O)CCn2c1nc1ccccc12	0.15	0.14	1.1	> 10	–
Cc1cc(N(C)C)ccc1NC(=O)C1=C(O)CCn2c1nc1ccccc12	4	1.5	2.7	–	–
O=C(Nc1ccc(O)cc1)C1=C(O)CCn2c1nc1ccccc12	0.046	0.031	–	–	ED50 (Mus sp.): >30 mg/kg and 10 mg/kg; GABA shift [10]: 1.5
CN(C)c1ccccc1NC(=O)C1=C(O)CCn2c1nc1ccccc12	10	–	–	–	ED50 (Mus sp.): 4.9 mg/kg and 10 mg/kg
O=C(Nc1ccncc1)c1c(O)ccn2c1nc1ccccc12	0.26	0.15	1.7	> 10	–
C[n+]1ccc(NC(=O)C2=C(O)CCn3c2nc2ccccc23)cc1	6.3	3.1	2	> 10	–
CN(C)c1ccc(NC(=O)C2=C3N(C)c4ccccc4N3CCC2=O)cc1	0.029	0.016	–	–	GABA shift [10]: 1.8
Nc1ccc(NC(=O)C2=C(O)CCn3c2nc2ccccc23)cc1	13	3.4	3.8	–	–
O=C(Nc1ncccn1)C1=C(O)CCn2c1nc1ccccc12	0.054	0.05	1.1	–	–
O=C(Nc1cccnc1)C1=C(O)CCn2c1nc1ccccc12	0.051	0.048	1.1	–	–
CCN1C2=C(C(=O)Nc3ccncc3)C(=O)CCN2c2ccccc21	0.08	0.027	3	–	minimal effective dose [4]: 10 mg/kg; minimal effective dose (Rattus norvegicus [5]): 3 mg/kg; minimal effective dose (Rattus norvegicus [6]): 3 mg/kg
O=C(Nc1ccncc1F)C1=C(O)CCn2c1nc1ccccc12	0.053	0.02	2.6	–	–
O=C(Nc1ccccn1)C1=C(O)CCn2c1nc1ccccc12	0.059	0.036	1.7	11.2	ED50 (Mus sp.): 10 mg/kg
